Non-standard residues stand in square brackets, D forms with d. Residues, ends and D or L forms follow the SMILES beside them. *: point of attachment. Tyr(3-NO2) = N[C@@H](Cc1ccc(O)c([N+](=O)[O-])c1)C(=O)O; Benzoyl(2-COOH) = O=C(O)c1ccccc1C(=O)*; 2Nal = N[C@@H](Cc1ccc2ccccc2c1)C(=O)O; Tic = O=C(O)[C@@H]1Cc2ccccc2CN1; hLeu = CC(C)CC[C@H](N)C(=O)O; dNle = CCCC[C@@H](N)C(=O)O; Nle = CCCC[C@H](N)C(=O)O; Ac5c = NC1(C(=O)O)CCCC1; 2Abz = Nc1ccccc1C(=O)O
target: T1, Der pI (Dermatophagoides pteronyssinus, UniProt P08176); test: Der pI substrate assay with FRET peptides (fluorescence, Km, kcat/Km); format: biochemical, house dust mite; set-up: key: NS indicates that the peptide was not hydrolysed by Der pI.; NM indicated that the peptide was a substrate for Der pI, but the Km was not measured.; NM^a indicates that the peptide was a substrate for Der pI, and its cleavage was followed by HPLC-MS showing hydrolysis to occur between-Nle-Ser-; details: purified Der pI; peptides SEQ ID Nos. 1-76
T1 construct: tissue SmithKline-Beecham, U.K (crude mite extract); host or cells: crude house dust mite extract
T1 sequence (P08176 99-320): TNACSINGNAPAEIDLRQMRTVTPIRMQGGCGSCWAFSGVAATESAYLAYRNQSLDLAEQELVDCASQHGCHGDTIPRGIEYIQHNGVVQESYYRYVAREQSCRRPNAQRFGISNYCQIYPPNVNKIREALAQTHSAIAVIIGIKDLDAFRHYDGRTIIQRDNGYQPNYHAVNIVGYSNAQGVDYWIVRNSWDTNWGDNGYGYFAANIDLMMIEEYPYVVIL
Procedure: Using the general techniques described above, the following compounds were prepared and assayed as potential substrates against Der pI purified as described above.
Each mixture of 20 compounds in the libraries of the apparatus described herein was screened at a concentration of 1.0 μM per compound in an assay against the cysteinyl protease Der pI.
Plate assays were carried out in 96 well plate format, using 0.1 ug of Der pI per 100 μL assay volume in each well and using 20 μM of the substrate. All assays were performed in Assay Buffer (AB; 50 mM potassium phosphate, pH 8.25 containing 1 mM ethylenediaminetetraacetic acid (EDTA) and 1 mM dithiothreitol (DTT). The Der pI enzyme is pre-activated by addition of DTT and this in incubated at room temperature for 5 min. prior to initiation of the assay. As an example for the screening methodology, each well contains a 5 μL of a 20 μM solution of the test compound in DMSO, 10 μL of a 200 μM aqueous solution of the substrate, 2, and 85 μL of Der pI in AB is added to initiate the reaction. Enzyme activity is monitored by fluorescence using 320 nm for excitation and 420 nm for the emission wavelengths using a Labsystems Fluroskan Ascent machine. Kinetic measurements were carried out using a Hitachi F-4500 Fluorescence Spectrophotometer.

Row | Compound | substrate or not substrate for Der pI (symbols in Measured Km)
1 | CCCC[C@H](NC(=O)[C@H](C)NC(=O)[C@@H](NC(=O)c1ccccc1N)C(C)C)C(=O)N[C@@H](CO)C(=O)N[C@@H](CCCCN)C(=O)N[C@@H](CC(=O)O)C(N)=O [Abz-Val-Ala-Nle-Ser-Lys-Asp-NH2] (H-[2Abz]VA[Nle]SKD-NH2) | NM
2 | CC(C)CC[C@H](NC(=O)[C@@H]1Cc2ccccc2CN1C(=O)[C@@H](NC(=O)c1ccccc1N)C(C)C)C(=O)N[C@@H](CO)C(=O)N[C@@H](Cc1ccc(O)c([N+](=O)[O-])c1)C(=O)N[C@@H](CC(=O)O)C(N)=O [Abz-Val-Tic-hLeu-Ser-Tyr(NO2)-Asp-NH2] (H-[2Abz]V[Tic][hLeu]S[Tyr(3-NO2)]D-NH2) | NS
3 | Chex-Val-Ala-Nle-Ser-Tyr(NO2)-NH2 | NM^a
4 | CCCC[C@H](NC(=O)[C@H](C)NC(=O)[C@@H](NC(=O)c1ccccc1C(=O)O)C(C)C)C(=O)N[C@@H](CO)C(=O)N[C@@H](Cc1ccc(O)c([N+](=O)[O-])c1)C(N)=O [Bz(2-carboxy)-Val-Ala-Nle-Ser-Tyr(NO2)-NH2] ({Benzoyl(2-COOH)}-VA[Nle]S[Tyr(3-NO2)]-NH2) | NM^a
5 | CC(C)CC[C@H](NC(=O)C1(NC(=O)[C@@H](NC(=O)c2ccccc2N)C(C)C)CCCC1)C(=O)N[C@@H](CO)C(=O)N[C@@H](Cc1ccc(O)c([N+](=O)[O-])c1)C(=O)N[C@@H](CC(=O)O)C(N)=O [Abz-Val-ACP-hLeu-Ser-Tyr(NO2)-Asp-NH2] (H-[2Abz]V[Ac5c][hLeu]S[Tyr(3-NO2)]D-NH2) | NS
6 | CCCC[C@H](NC(=O)[C@H](C)NC(=O)[C@@H](NC(=O)[C@H](CC(C)C)NC(=O)c1ccccc1N)C(C)C)C(=O)N[C@@H](CO)C(=O)N[C@@H](Cc1ccc(O)c([N+](=O)[O-])c1)C(=O)N[C@@H](CC(=O)O)C(N)=O [Abz-Leu-Val-Ala-Nle-Ser-Tyr(NO2)-Asp-NH2] (H-[2Abz]LVA[Nle]S[Tyr(3-NO2)]D-NH2) | NM
7 | CCCC[C@H](NC(=O)[C@H](C)NC(=O)c1ccccc1N)C(=O)N[C@@H](CO)C(=O)N[C@@H](Cc1ccc(O)c([N+](=O)[O-])c1)C(=O)N[C@@H](CC(=O)O)C(N)=O [Abz-Ala-Nle-Ser-Tyr(NO2)-Asp-NH2] (H-[2Abz]A[Nle]S[Tyr(3-NO2)]D-NH2) | NM
8 | CCCC[C@@H](NC(=O)[C@H](C)NC(=O)[C@@H](NC(=O)c1ccccc1N)C(C)C)C(=O)N[C@@H](CO)C(=O)N[C@@H](Cc1ccc(O)c([N+](=O)[O-])c1)C(=O)N[C@@H](CC(=O)O)C(N)=O [Abz-Val-Ala-DNle-Ser-Tyr(NO2)-Asp-NH2] (H-[2Abz]VA[dNle]S[Tyr(3-NO2)]D-NH2) | NS
9 | Abz-3.Pyr-Val-Ala-Nle-Ser-Tyr(NO2)-Asp-NH2 | NM
10 | CCCC[C@H](NC(=O)[C@H](C)NC(=O)[C@@H](NC(=O)[C@H](Cc1ccc(O)cc1)NC(=O)c1ccccc1N)C(C)C)C(=O)N[C@@H](CO)C(=O)N[C@@H](Cc1ccc(O)c([N+](=O)[O-])c1)C(=O)N[C@@H](CC(=O)O)C(N)=O [Abz-Tyr-Val-Ala-Nle-Ser-Tyr(NO2)-Asp-NH2] (H-[2Abz]YVA[Nle]S[Tyr(3-NO2)]D-NH2) | NM
11 | n-Bu-Val-Ala-Nle-Ser-Tyr(NO2)-NH2 | NM^a
12 | CC(C)CC[C@H](NC(=O)[C@H](Cc1ccc2ccccc2c1)NC(=O)[C@@H](NC(=O)c1ccccc1N)C(C)C)C(=O)N[C@@H](CO)C(=O)N[C@@H](Cc1ccc(O)c([N+](=O)[O-])c1)C(=O)N[C@@H](CC(=O)O)C(N)=O [Abz-Val-2Nal-hLeu-Ser-Tyr(NO2)-Asp-NH2] (H-[2Abz]V[2Nal][hLeu]S[Tyr(3-NO2)]D-NH2) | NS
